Experimental data: publication PMC7497692 (Investigational New Drugs, 2020)

Key:
[1] = Metabolite profiling and identification in plasma, urine and feces (part A); type: in vivo, human healthy male volunteers; conditions: oral part A
Protocol: Participants were hospitalized from day 1 to day 16 of the study, and further assessed on days 19, 22, and 25 (trial end). […] Pre-dose feces and urine samples were collected on day 1 and day 2, respectively. Urine was collected at 4- to 12-h intervals on day 1 and every 24 h thereafter up to day 16. Feces were collected every 24 h up to day 16. Provision was made to collect further samples up to day 39 if >1% of the administered dose was detectable in the total (urine and feces) excreta per day on two consecutive measurements.
Metabolite profiling and structure elucidation in plasma, urine, and feces were performed at the Institute of Drug Metabolism and Pharmacokinetics, Merck KGaA, Grafing, Germany, using a radiometric UPLC method coupled to a high-resolution MS. For urine and feces, metabolites were identified in a single pooled sample per matrix and subject (urine pool of 4–120 h and feces pool of 0–192 h), that covered at least 90% of the total radioactivity of the respective matrix excreted. Intervals with low radioactivity were not used for the generation of the pooled samples to avoid dilution, and to increase the signal-to-noise ratio of the respective chromatograms.
The metabolite structure elucidation was performed using the linear trap quadrupole Orbitrap XL hybrid Fourier transform (FT) MS (Thermo Scientific, Dreieich, Germany) coupled to a Waters Acquity UPLC system. Full-scan FT spectra were acquired for measurement of the masses of molecular ions of parent and metabolites. MS^2 fragmentation spectra were acquired after high-energy collisional dissociation of the appropriate molecular ions. Allocation and confirmation of the proposed metabolites to the radioactive peaks were performed using an API4000 QTrap (AB Sciex, Darmstadt, Germany) MS with simultaneous splitting using a fraction collection system (CTC HTS PAL Fraction Collector, Axel Semrau, Sprockhövel, Germany), and offline radioactive measurement using a Topcount NXT® microplate scintillation counter (PerkinElmer, Rodgau, Germany).
The maximum plasma concentration (Cmax) and time to reach maximum concentration (tmax) were derived directly from the plasma concentration–time data. Lag time (tlag) was the time prior to the first measurable (non-zero) concentration. The area under the plasma concentration–time curve from 0 to t (last measurable concentration; AUC0–t) was calculated using a mixed log–linear trapezoidal method. Area under the plasma concentration–time curve until the last sampling time (AUCall), which corresponds to AUC0–240 h within the observation period, was used for metabolite calculations. Amounts excreted in urine, feces, and total (urine + feces) were calculated as the sum of amounts (concentration multiplied by volume) for each collection from time 0 to time t. The terminal rate constant (λz) was used to estimate the terminal half-life (t½) (ln 2/λz), and the area under the concentration–time curve from time 0 to infinity (AUC0–∞). Total body clearance (CL) and apparent body clearance (CL/f) were determined by dose/AUC0–∞, and total volume of distribution (Vz) and apparent volume of distribution (Vz/f) were calculated by dose/(AUC0–∞*λz) after IV and oral administration, respectively. Volume of distribution of the central compartment (Vc) was derived by dividing the dose by the initial drug plasma concentration after IV administration. Absolute bioavailability was calculated as F = (AUCoral/doseoral)/(AUCIV/doseIV) × 100. The ratios (%) AUCtepotinib or metabolite/AUCtotal radioactivity were calculated as a percentage of the molar AUCs.

P-glycoprotein = tested on: P-glycoprotein; parameters: method as in earlier work; conditions: cited from earlier work

In the case of `CN1CCC(COc2cnc(-c3cccc(Cn4nc(-c5cccc(C#N)c5)ccc4=O)c3)nc2)CC1` [Tepotinib], the “% of total radioactive administered dose excreted in feces or urine (excreta)” value ([1]; feces plus urine) is reported as 52%, the “% of total administered radioactive dose excreted in feces” value ([1]; feces pool 0–192 h) is reported as 45% and the “% of AUCall of total 14C-radioactivity in plasma” value ([1]; plasma, AUCall = AUC0–240 h, molar AUC ratio) is reported as 55%. For the same compound, the “% of total administered radioactive dose excreted in urine” value ([1]; urine pool 4–120 h) was 7% and the P-glycoprotein substrate status (P-glycoprotein) was “substrate of the drug efflux transporter P-glycoprotein”.
